In brackets after ≈: the same amount, converted by molar mass.
Legend:
[1] = Solubility of compound in 50 mM sodium phosphate buffer at room temperature; type: physicochemical; settings: read-out: S
[2] = Compound was evaluated for its stability in phosphate buffer in absence of EDTA at pH 7.4; type: physicochemical; settings: phosphate buffer without EDTA
[3] = Compound was evaluated for its stability in phosphate buffer in presence of EDTA at pH 7.4; type: physicochemical; settings: phosphate buffer with EDTA
[4] = Half-life in phosphate buffer at pH 7 and 37 degree C; type: ADME

solubility [1]	half-life [2]	half-life [3]	half-life [4]	Structure (SMILES)
> 1000 mg/mL	30.2 h	28.5 h	–	CC(=O)NC(C(=O)NC1OC(CO)C(O)C(O)C1O)C(C)(C)SN=O (stereo not drawn)
> 1000 mg/mL	27.4 h	27.5 h	–	CC(=O)NC(C(=O)NC1C(O)OC(CO)C(O)C1O)C(C)(C)SN=O (stereo not drawn)
> 1000 mg/mL	28.2 h	30.2 h	–	COC1OC(CNC(=O)C(NC(C)=O)C(C)(C)SN=O)C(O)C(O)C1O (stereo not drawn)
2 mg/mL (≈ 9.08 mM)	10.3 h	15.9 h	5 h	CC(=O)N[C@@H](C(=O)O)C(C)(C)SN=O
